Results reported in patent publication US20050054629A1, “Compounds and methods of treating cell proliferative diseases” (priority 2002, published 2005).
Read-outs that look alike come from different tables or passages of the source.

Tests used:
[1] = system: MDA-MB-231 cells; experiment: Matrigel invasion assay (Boyden chamber); format: cell-based, human; settings: for Invasion: MDA-MB-231, Boyden chamber, matrigel
Procedure, shortened: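 MDA-MB-231 cells were pretreated overnight with compound (1, 10, 17.5, 25, 50 μM). 10^5 cells in serum-free 0.1% BSA medium with compound were placed on 8 μm membranes coated with Matrigel (125 μg/cm^2), with 10% FBS plus compound below. After 6 h at 37 °C, cells on the filter underside were Diff-Quick stained and counted.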

[2] = system: MMP-2; experiment: Gelatin zymography; format: cell-based, human; settings: MDA-MB-231 supernatant
Protocol: (§1) The activity of the metalloproteases MMP-2 and MMP-9 was assayed using gelatinolytic zymography according to Lambert (Surgery 1997). Briefly, MDA-MB-231 cells were incubated overnight in serum-free medium supplemented with ITS liquid supplement (Sigma) with different concentrations of compound (1, 10, 17.5, 25 and 50 μM). Supernatant was collected and concentrated with Ultrafree 30 kDA (Millipore). Equal amount of proteins, as determined by Bradford measurement, were loaded onto a 10% w/v polyacrylamide gel containing 1% gelatin and 0.1% SDS (Novex). After electrophoresis, gels were washed in Novex Zymogram Renaturing buffer for 30 min at room temperature and incubated overnight at 37° C. in Novex Zymogram developing buffer. Gels were stained in Coomassie Brilliant Blue G-250, and the gelatinolytic activity was visualized as a clear band against the blue background of the stained gelatin.

[3] = system: MMP-9; experiment: Gelatin zymography; format: cell-based, human; settings: MDA-MB-231 supernatant
Protocol: as §1

[4] = system: NIH3T3 mouse fibroblasts; experiment: Cytotoxicity assay (MTT), 6 days; format: cell-based; settings: NIH3T3, 144 h, 6 days of treatment, read-out: Toxicity 6d (IC 50, μM) NIH3T3
Procedure, shortened: (§2)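 Cells seeded 24 h before treatment with 0, 1, 10, 17.5, 25 and 50 μM compound in DMSO (1% final). After 6 days, cells were incubated 3 h at 37° C with 0.5 mg/ml MTT in PBS, formazan dissolved in DMSO, absorbance read at 550 nm; surviving fraction and IC50 calculated, triplicate.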

[5] = system: H460 lung carcinoma; experiment: Cytotoxicity assay (MTT), 6 days; format: cell-based; settings: Homo sapiens, NCI-H460, 144 h, 6 days of treatment, read-out: Toxicity 6d (IC 50, μM) H460
Procedure, shortened: as §2

[6] = system: MDA-MB-231 breast carcinoma; experiment: Cytotoxicity assay (MTT), 6 days; format: cell-based; settings: Homo sapiens, MDA-MB-231, 144 h, 6 days of treatment, read-out: Toxicity 6d (IC 50, μM) MDA231
Procedure, shortened: as §2

[7] = system: MCF-7 breast carcinoma; experiment: Cytotoxicity assay (MTT), 6 days; format: cell-based; settings: Homo sapiens, MCF7, 144 h, 6 days of treatment, read-out: Toxicity 6d (IC 50, μM) MCF7
Procedure, shortened: as §2

[8] = system: MCF10-A; experiment: Cytotoxicity assay (MTT), 6 days; format: cell-based; settings: Homo sapiens, MCF-10A, 144 h, 6 days of treatment, read-out: Toxicity 6d (IC 50, μM) MCF10-A
Procedure, shortened: as §2

[9] = system: MDA-MB-231 cells; experiment: Migration assay (Boyden chamber, non-coated filters); format: cell-based, human; settings: for Migration: MDA-MB-231, Boyden chamber
Procedure, shortened: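 MDA-MB-231 cells were pretreated overnight with compound (1, 10, 17.5, 25 and 50 μM), then 10^5 cells placed in the upper chamber in serum-free medium with 0.1% BSA plus compound; lower chamber held 10% FBS plus compound as chemoattractant. After 6 hours at 37° C on non-coated filters, migrated underside cells were stained and counted by microscopy.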

[10] = system: cell architecture; experiment: Cell architecture modification, phase contrast; format: cell-based; set-up: key: −: no effect of the compound was observed; +: an effect of the compound was observed
[11] = system: NIH3T3 cells; experiment: Colony formation assay with constitutively activated Ras (RasV12) and Rac (RacV12); format: cell-based, mouse; set-up: key to Colony formation: −: no effect of the compound was observed; +: an effect of the compound was observed
Procedure, shortened: (§3)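 Ras and Rac signalling were measured with reporter systems. For colony formation, NIH3T3 cells were transfected with RasV12 or RacV12 plus neomycin plasmids, then grown 2-3 weeks in 400 μg/ml geneticin with compound at 1, 10, 17.5, 25 or 50 μM. Fuchsin-stained colonies of ≥50 cells were counted.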

[12] = system: Ras; experiment: Ras-dependant signaling pathway analysis (reporter system); format: cell-based; set-up: key: −: no effect of the compound was observed; +: an effect of the compound was observed
Procedure, shortened: as §3

[13] = system: HCT116 colon adenocarcinoma; experiment: Cytotoxicity assay (MTT), 6 days; format: cell-based, human; settings: 6 days of treatment, read-out: Toxicity 6d (IC 50, μM) HCT116
Procedure, shortened: as §2

| Structure (SMILES) | concentration giving significant inhibition of invasive properties of MDA-MB-231 cells [1] | Invasion [1] | concentration inhibiting MMP-2 in a dose-dependant manner (zymogram gel) [2] | concentration inhibiting MMP-9 in a dose-dependant manner (zymogram gel) [3] | IC50 [4] | IC50 [5] | IC50 [6] | IC50 [7] | IC50 [8] | concentration at which inhibition of serum-induced migration was observed [9] | Migration [9] | Cell architecture modification phase contrast [10] | Colony formation [11] | Ras-dependent neoR clones formation ([11]; NIH3T3 transfected with RasVal12) | Small GTPases activities Ras [12] | IC50 [13] | IC50 ([13]; Homo sapiens, HCT-116, 144 h) | concentration giving an increase in invasive properties of MDA-MB-231 cells [1] |
| --- | --- | --- | --- | --- | --- | --- | --- | --- | --- | --- | --- | --- | --- | --- | --- | --- | --- | --- |
| CCCc1c(OCCCCCOc2coc(CO)cc2=O)ccc(Cl)c1Cl [EH22900, 5-[5-(3,4-Dichloro-2-propylphenyloxy)pentyloxy]-2-(hydroxymethyl)-4H-pyran-4-one] | 17.5 µM | Decrease | 5 µM | 5 µM | 30 µM | 15 µM | 30 µM | 50 µM | > 50 µM | 25 µM | inhibition | + | + | inhibited | − | 10 µM | ≤ 15 µM |  |
| C/C=C/c1oc(CO)cc(=O)c1OCCCCCOc1ccc(Cl)c(Cl)c1CCC [EH31101, (E)-3-[5-(3,4-Dichloro-2-propylphenyloxy)pentyloxy]-6-(hydroxymethyl)-2-(propen-1-yl)-4H-pyran-4-one] |  | Increase | 0.1 µM | 0.1 µM | > 50 µM | 25 µM | 25 µM | 25 µM | 35 µM | 10 µM | no effect | + | − |  | − |  | 30 µM | 10 µM |
